Test results from patent publication US11021457B2, “Class of isoindolone-imide ring-1,3-dione-2-ene compounds, composition and use thereof” (WIGEN BIOMEDICINE TECHNOLOGY (SHANGHAI) CO., LTD., priority 2017, dated 2021).
Where two headings read alike, the source gives them in different places.

What was measured:
SU-DHL6 = experiment: Inhibition of tumor cell proliferation, CellTiter-Glo, SU-DHL6; assay type: cell-based; details: compound concentration 50 μM, 72 hours; for cell survival rate (% of control) at 50 µM: Homo sapiens, SU-DHL-6, read-out: Inhibitory activity against proliferation (cell survival rate) SU-DHL6
Method in brief: (§1)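 Activity is graded from survival at 50 μM: + for 60 to under 90%, ++ for over 30 to 60%, +++ for 30% or less. Survival was measured luminescently (CellTiter-Glo) 72 h after dosing, relative to untreated and blank wells; 2000-10000 cells/well, 37° C, 5% CO2.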

K562 = experiment: Inhibition of tumor cell proliferation, CellTiter-Glo, K562; assay type: cell-based; details: compound concentration 50 μM, 72 hours; for cell survival rate (%) at 50 µM: Homo sapiens, K562, read-out: Inhibitory activity against proliferation (cell survival rate) K562
Method in brief: as §1

RPMI-8226 = experiment: Inhibition of tumor cell proliferation, CellTiter-Glo, RPMI-8226; assay type: cell-based; details: compound concentration 50 μM, 72 hours; for cell survival rate (% of control) at 50 µM: Homo sapiens, RPMI-8226, read-out: Inhibitory activity against proliferation (cell survival rate) RPMI-8226
Method in brief: as §1

MDA-MB-453 = experiment: Inhibition of tumor cell proliferation, CellTiter-Glo, MDA-MB-453; assay type: cell-based; details: compound concentration 50 μM, 72 hours; for cell survival rate (%) at 50 µM: Homo sapiens, MDA-MB-453, read-out: Inhibitory activity against proliferation (cell survival rate) MDA-MB-453
Method in brief: as §1

LC3B = LC3B (Homo sapiens (Human), UniProt Q9GZQ8); experiment: Fluorescence polarization experiment targeting LC3B (GST-LC3B with FITC-labeled peptide)
A549 = experiment: Inhibition of tumor cell proliferation, CellTiter-Glo, A549; assay type: cell-based; details: compound concentration 50 μM, 72 hours; for cell survival rate (% of control) at 50 µM: Homo sapiens, A549, read-out: Inhibitory activity against proliferation (cell survival rate) A549
Method in brief: as §1

BxPC-3 = experiment: Inhibition of tumor cell proliferation, CellTiter-Glo, BxPC-3; assay type: cell-based; details: compound concentration 50 μM, 72 hours; for cell survival rate (%) at 50 µM: Homo sapiens, BXPC-3, read-out: Inhibitory activity against proliferation (cell survival rate) BxPC-3
Method in brief: as §1

[1] = GST-LC3B 180 nM, FITC-labeled peptide 18 nM, 25° C.

SMILES	Inhibitory activity against proliferation (cell survival rate) SU-DHL6 (SU-DHL6)	Inhibitory activity against proliferation (cell survival rate) K562 (K562)	Inhibitory activity against proliferation (cell survival rate) RPMI-8226 (RPMI-8226)	Inhibitory activity against proliferation (cell survival rate) MDA-MB-453 (MDA-MB-453)	IC50 (LC3B; [1])	Inhibitory activity against proliferation (cell survival rate) A549 (A549)	Inhibitory activity against proliferation (cell survival rate) BxPC-3 (BxPC-3)	cell survival rate (% of control) at 50 µM (SU-DHL6)	cell survival rate (%) at 50 µM (K562)	cell survival rate (% of control) at 50 µM (RPMI-8226)	cell survival rate (%) at 50 µM (MDA-MB-453)	IC50 (LC3B)	cell survival rate (% of control) at 50 µM (A549)	cell survival rate (%) at 50 µM (BxPC-3)
O=C1CCC(N2Cc3c(NC=C4C(=O)CC(c5ccc(F)cc5Br)CC4=O)cccc3C2=O)C(=O)N1 (stereo not drawn) [Compound 17]	+ (60≤survival rate (%)<90)	+ (60≤survival rate (%)<90)	+++ (survival rate (%)≤30)	+ (60≤survival rate (%)<90)	< 3 µM	++ (30<survival rate (%)≤60)	+ (60≤survival rate (%)<90)							
O=C1CCC(N2Cc3c(NC=C4C(=O)CC(c5ccccc5Br)CC4=O)cccc3C2=O)C(=O)N1 (stereo not drawn) [Compound 18]	++ (30<survival rate (%)≤60)	++ (30<survival rate (%)≤60)	+ (60≤survival rate (%)<90)	+ (60≤survival rate (%)<90)	< 3 µM	+ (60≤survival rate (%)<90)	+ (60≤survival rate (%)<90)							
O=C1CCC(N2Cc3c(NC=C4C(=O)CC(c5ccc(F)cc5)CC4=O)cccc3C2=O)C(=O)N1 (stereo not drawn) [Compound 19]	+ (60≤survival rate (%)<90)	++ (30<survival rate (%)≤60)	++ (30<survival rate (%)≤60)	++ (30<survival rate (%)≤60)	< 3 µM	+ (60≤survival rate (%)<90)	++ (30<survival rate (%)≤60)							
Cc1ccc(C2CC(=O)C(=CNc3cccc4c3CN(C3CCC(=O)NC3=O)C4=O)C(=O)C2)c(Br)c1 (stereo not drawn) [Compound 20]	++ (30<survival rate (%)≤60)	++ (30<survival rate (%)≤60)	+ (60≤survival rate (%)<90)	+ (60≤survival rate (%)<90)	< 3 µM	++ (30<survival rate (%)≤60)	+ (60≤survival rate (%)<90)							
O=C1CCC(N2Cc3c(NC=C4C(=O)CC(c5ccc(C(F)(F)F)cc5)CC4=O)cccc3C2=O)C(=O)N1 (stereo not drawn) [Compound 21]	+ (60≤survival rate (%)<90)	++ (30<survival rate (%)≤60)	+ (60≤survival rate (%)<90)	+ (60≤survival rate (%)<90)	< 3 µM	++ (30<survival rate (%)≤60)	+ (60≤survival rate (%)<90)							
CCOC(=O)C1C(=O)C(=CNc2cccc3c2CN(C2CCC(=O)NC2=O)C3=O)C(=O)CC1c1cccc2[nH]ccc12 (stereo not drawn) [Compound 25]								60 to 90%	60 to 90%	60 to 90%	60 to 90%	< 3 µM	60 to 90%	60 to 90%
CCOC(=O)C1C(=O)C(=CNc2cccc3c2C(=O)N(C2CCC(=O)NC2=O)C3=O)C(=O)CC1c1cccc2[nH]ccc12 (stereo not drawn) [Compound 26]								60 to 90%	60 to 90%	60 to 90%	60 to 90%	< 3 µM	60 to 90%	60 to 90%
O=C1CCC(N2Cc3c(NC=C4C(=O)CC(c5c[nH]c6ccccc56)CC4=O)cccc3C2=O)C(=O)N1 (stereo not drawn) [Compound 38]	+++ (survival rate (%)≤30)	+++ (survival rate (%)≤30)	+++ (survival rate (%)≤30)	+++ (survival rate (%)≤30)	< 3 µM	+++ (survival rate (%)≤30)	++ (30<survival rate (%)≤60)							
O=C1CCC(N2Cc3c(NC=C4C(=O)CC(c5cccc6[nH]ncc56)CC4=O)cccc3C2=O)C(=O)N1 (stereo not drawn) [Compound 39]	++ (30<survival rate (%)≤60)	+++ (survival rate (%)≤30)	+ (60≤survival rate (%)<90)	+++ (survival rate (%)≤30)	< 3 µM	+ (60≤survival rate (%)<90)	++ (30<survival rate (%)≤60)							
O=C1CCC(N2Cc3c(NC=C4C(=O)CC(c5c[nH]c6cccc(F)c56)CC4=O)cccc3C2=O)C(=O)N1 (stereo not drawn) [Compound 41]	+ (60≤survival rate (%)<90)	+++ (survival rate (%)≤30)	+ (60≤survival rate (%)<90)	+ (60≤survival rate (%)<90)	< 3 µM	+++ (survival rate (%)≤30)	+ (60≤survival rate (%)<90)							
O=C1CCC(N2Cc3c(NC(=O)CNC=C4C(=O)CC(c5ccccc5)CC4=O)cccc3C2=O)C(=O)N1 (stereo not drawn) [Compound 42]	+ (60≤survival rate (%)<90)	++ (30<survival rate (%)≤60)	++ (30<survival rate (%)≤60)	+ (60≤survival rate (%)<90)	100 to 1000 µM	++ (30<survival rate (%)≤60)	+ (60≤survival rate (%)<90)							
C[C@@H](CC(=O)Nc1cccc2c1CN(C1CCC(=O)NC1=O)C2=O)NC=C1C(=O)CC(c2ccccc2)CC1=O (stereo partly drawn) [Compound 44]	+++ (survival rate (%)≤30)	+++ (survival rate (%)≤30)	+++ (survival rate (%)≤30)	+ (60≤survival rate (%)<90)	100 to 1000 µM	+++ (survival rate (%)≤30)	+ (60≤survival rate (%)<90)							
O=C1CCC(N2Cc3c(NC(=O)CCNC=C4C(=O)CC(c5ccccc5)CC4=O)cccc3C2=O)C(=O)N1 (stereo not drawn) [Compound 45]	+ (60≤survival rate (%)<90)	+ (60≤survival rate (%)<90)	+ (60≤survival rate (%)<90)	+ (60≤survival rate (%)<90)	100 to 1000 µM	+ (60≤survival rate (%)<90)	+ (60≤survival rate (%)<90)							
O=C1CCC(N2Cc3c(NC(=O)CCCCNC=C4C(=O)CC(c5ccccc5)CC4=O)cccc3C2=O)C(=O)N1 (stereo not drawn) [Compound 46]	+ (60≤survival rate (%)<90)	++ (30<survival rate (%)≤60)	++ (30<survival rate (%)≤60)	+++ (survival rate (%)≤30)	100 to 1000 µM	+++ (survival rate (%)≤30)	+ (60≤survival rate (%)<90)							
O=C1CCC(N2Cc3c(NC(=O)CCCNC=C4C(=O)CC(c5ccccc5)CC4=O)cccc3C2=O)C(=O)N1 (stereo not drawn) [Compound 47]	+++ (survival rate (%)≤30)	+ (60≤survival rate (%)<90)	+ (60≤survival rate (%)<90)	+++ (survival rate (%)≤30)	100 to 1000 µM	+ (60≤survival rate (%)<90)	++ (30<survival rate (%)≤60)							
